Measured values published in patent US20060247303A1, “7H-dibenzo[b,g][1,5]dioxocin-5-one derivatives and use thereof” (BAYER HEALTHCARE AG, priority 2002, published 2006).
Like-named read-outs stand apart in the source and are kept apart here.

Key:
[1] = target: T1, CETP activity in the serum (Homo sapiens, UniProt P11597); test: Measurement of the ex vivo activities on transgenic hCETP mice; assay type: in vivo; settings: mouse, serum cholesteryl ester transport; for inhibition at 30 mg/kg: 30 mg/kg oral; for inhibition at 100 mg/kg: 100 mg/kg oral
T1 construct: from tissue; host or cells: serum of transgenic hCETP mice
T1 sequence (P11597 18-493): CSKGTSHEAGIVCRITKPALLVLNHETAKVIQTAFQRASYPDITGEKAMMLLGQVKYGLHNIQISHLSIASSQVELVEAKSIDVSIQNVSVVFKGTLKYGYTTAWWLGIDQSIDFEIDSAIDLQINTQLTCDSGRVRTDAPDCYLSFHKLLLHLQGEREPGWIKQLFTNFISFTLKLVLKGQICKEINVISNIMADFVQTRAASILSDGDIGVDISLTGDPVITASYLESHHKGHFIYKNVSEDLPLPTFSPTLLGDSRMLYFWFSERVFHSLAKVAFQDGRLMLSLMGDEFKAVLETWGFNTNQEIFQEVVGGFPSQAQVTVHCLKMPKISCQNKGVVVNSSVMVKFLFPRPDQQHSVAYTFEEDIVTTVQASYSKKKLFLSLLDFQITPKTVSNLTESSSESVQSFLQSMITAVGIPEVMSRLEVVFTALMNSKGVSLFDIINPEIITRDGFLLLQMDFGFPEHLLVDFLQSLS
Description: To test for CETP-inhibitory activity, the substances are administered orally using a stomach tube to transgenic hCETP mice bred in-house (Dinchuk et al. BBA (1995) 1295-301). To this end, male animals are randomly assigned to groups having an equal number of animals, as a rule n=3, one day before the start of the experiment. Before administration of the substance, blood is taken from each mouse by puncture of the retro-orbital venous plexus for the determination of its basal CETP activity in the serum (T1). The test substance is then administered to the animals using the stomach tube. At specific times after administration of the test substance, blood is taken from the animals by puncture a second time (T2), as a rule 0.5, or 1 and 2 h after substance administration, but if appropriate this can also be carried out at another time.
In order to be able to assess the inhibitory activity of a substance, for each time, i.e. 0.5 or 1 or 2 h, a corresponding control group is employed whose animals only receive the formulating agent without substance. In the control animals, the second blood sampling per animal is carried out as in the substance-treated animals in order to be able to determine the change in the CETP activity without inhibitor over the corresponding experimental time interval (0.5, 1 or 2 h).
After termination of the clotting, the blood samples are centrifuged and the serum is removed by pipette.
For the determination of the CETP activity, the cholesteryl ester transport over 4 h is determined. To this end, as a rule 2 μl of serum are employed in the test batch and the test is carried out as described under “CETP fluorescence test”.
The differences in the cholesteryl ester transport [pM CE*/h (T2)−pM CE*/h (T1)] are calculated for each animal and averaged in the groups. A substance which at one of the times reduces the cholesteryl ester transport by >30% is regarded as active.

CETP = target: T2, CETP (Homo sapiens, UniProt P11597); test: CETP fluorescence test; assay type: biochemical; settings: CETP from human plasma, transfer of fluorescent cholesterol ester between liposomes, 37° C., 4 hours; read-out: IC50 [nM] Fluor. test
T2 construct: enriched CETP fraction, obtained from human plasma by means of hydrophobic chromatography; from tissue; host or cells: human plasma
T2 sequence (P11597 18-493): T1 sequence (P11597 18-493)
Description: CETP is obtained in partially purified form from human plasma by differential centrifugation and column chromatography and used for the test. To this end, human plasma is adjusted to a density of 1.21 g per ml using NaBr and centrifuged at 4° C. at 50 000 rpm for 18 h. The bottom fraction (d>1.21 g/ml) is applied to a Sephadex® Phenyl-Sepharose 4B (Pharmacia) column, washed with 0.15 M NaCl/0.001 M tris HCl pH 7.4 and then eluted with distilled water. The CETP-active fractions are pooled, dialysed against 50 mM sodium acetate pH 4.5 and applied to a CM-Sepharose® column (Pharmacia). The mixture is then eluted using a linear gradient (0-1 M NaCl). The pooled CETP fractions are dialysed against 10 mM Tris HCl pH 7.4 and then further purified by chromatography on a Mono Q® column (Pharmacia).
Measurement of the CETP-catalysed transfer of a fluorescent cholesterol ester between liposomes—modified according to the procedure of Bisgaier et al., J. Lipid Res. 34, 1625 (1993):
For the production of the donor liposomes, 1 mg of cholesteryl 4,4-difluoro-5,7-dimethyl-4-bora-3a,4a-diaza-s-indacene-3-dodecanoate (cholesteryl BODIPY® FL C12, Molecular Probes) is dissolved in 600 μl of dioxane with 5.35 mg of triolein and 6.67 mg of phosphatidylcholine with gentle warming in an ultrasonic bath and this solution is added very slowly with ultrasonication to 63 ml of 50 mM tris/HCl, 150 mM NaCl, 2 mM EDTA buffer pH 7.3 at RT.
The suspension is then ultrasonicated under an N2 atmosphere for 30 minutes in the Braukson ultrasonic bath at about 50 watts, the temperature being kept at about 20° C.
The acceptor liposomes are obtained analogously from 86 mg of cholesteryl oleate, 20 mg of triolein and 100 mg of phosphatidylcholine dissolved in 1.2 ml of dioxane and 114 ml of above buffer by ultrasonication at 50 watts (20° C.) for 30 minutes.
For testing, a test mix consisting of 1 part of above buffer, 1 part of donor liposomes and 2 parts of acceptor liposomes is used.
80 μl of test mix are treated with 1-3 μg of enriched CETP fraction, obtained from human plasma by means of hydrophobic chromatography, and 2 μl of the substance to be investigated in DMSO and incubated at 37° C. for 4 hours.
The change in the fluorescence at 485/535 nm is a measure of the CE transfer; the inhibition of the transfer in comparison to the control batch without substance is determined.

HDL cholesterol = test: Measurement of the in vivo activity in Syrian golden hamsters; settings: peroral
Description: In experiments for the determination of the oral action on lipoproteins and triglycerides, test substance dissolved in DMSO and 0.5% suspended in Tylose are administered perorally by means of a stomach tube to Syrian golden hamsters bred in-house. For the determination of the CETP activity, before the start of the experiment blood is taken by retro-orbital puncture (about 250 μl). The test substances are then administered perorally by means of a stomach tube. The control animals receive identical volumes of solvent without test substance. […]
Clotting is terminated by incubation of 4° C. overnight, then centrifugation is carried out for 10 minutes at 6000×g. The content of cholesterol and triglycerides in the serum thus obtained is determined with the aid of modified commercially obtainable enzymatic tests (Ecolin 25 Cholesterol, 1.14830.0001 Merck Diagnostica; Ecoline 25 Triglycerides, 1.14856.0001 Merck Diagnostica). […]
10 μl of serum dilution are treated with 200 μl of Ecoline 25 reagent in 96-hole plates and incubated for 10 minutes at room temperature. The optical density is then determined at a wavelength of 490 nm using an automatic plate reader. The triglyceride or cholesterol concentration contained in the samples is determined with the aid of a standard curve measured in parallel. […]

HDL = test: Measurement of the in vivo activity in transgenic hCETP mice; settings: stomach tube
Description: In experiments for the determination of the oral action on lipoproteins and triglycerides, test substance is administered to transgenic mice [Dinchuck et al., BBA, 1295-301 (1995)] using a stomach tube. Before the start of the experiment, blood is taken from the mice retro-orbitally in order to determine cholesterol and triglycerides in the serum. The serum is obtained as described above for hamsters by incubation at 4° C. overnight and subsequent centrifugation at 6000×g. […] The change in the parameters measured are expressed as the percentage change compared with the starting value.

[2] = 0.5 h after administration, read-out: % inhibition at 30 mg/kg 0.5 h
[3] = 1 h after administration, read-out: % inhibition at 30 mg/kg 1 h
[4] = 2 h after administration, read-out: % inhibition at 30 mg/kg 2 h
[5] = 3 h after administration, read-out: % inhibition at 30 mg/kg 3 h
[6] = 6 h after administration, read-out: % inhibition at 30 mg/kg 6 h
[7] = 0.5 h after administration, read-out: % inhibition at 100 mg/kg 0.5 h
[8] = 1 h after administration, read-out: % inhibition at 100 mg/kg 1 h
[9] = 2 h after administration, read-out: % inhibition at 100 mg/kg 2 h

COc1c([C@@H](O)CC(C)C)ccc2c1C(=O)OCc1c(Cl)c(C)c(Br)c(OC(=O)[C@]3(C)CC4C=CC3C4)c1O2 (stereo partly shown) [Example C-31]
inhibition at 30 mg/kg [1, 2]: 83% | inhibition at 30 mg/kg [1, 3]: 76% | inhibition at 30 mg/kg [1, 4]: 64%

CCc1c(C)c(Cl)c2c(c1OC(=O)C1(C)C3CCC1CC3)Oc1ccc([C@@H](O)CC(C)C)c(OC)c1C(=O)OC2 (stereo partly shown) [Example C-118]
inhibition at 30 mg/kg [1, 3]: 75% | inhibition at 30 mg/kg [1, 5]: 50% | inhibition at 30 mg/kg [1, 6]: 20% | IC50 (CETP): 58 nM

COc1c([C@@H](O)CC(C)(C)C)ccc2c1C(=O)OCc1c(Cl)c(C)c(Br)c(OC(=O)C3(C)C4CCC3CC4)c1O2 (stereo partly shown) [Example C-63]
inhibition at 30 mg/kg [1, 3]: 83% | inhibition at 30 mg/kg [1, 5]: 65% | inhibition at 30 mg/kg [1, 6]: 48% | % increase of HDL after 24 h (dose: 2 × 30 mg/kg) (HDL cholesterol): 17% | IC50 (CETP): 32 nM

COc1c([C@@H](O)CC(C)C)ccc2c1C(=O)OCc1c(C)c(C)c(C)c(OC(=O)C3(C)CC4CCC3C4)c1O2 (stereo partly shown) [Example B-70]
inhibition at 30 mg/kg [1, 2]: 48% | inhibition at 30 mg/kg [1, 3]: 30% | inhibition at 30 mg/kg [1, 4]: 44% | IC50 (CETP): 150 nM

COc1c([C@@H](O)CC(C)C)ccc2c1C(=O)OCc1c(Br)c(C)c(Br)c(OC(=O)C3(C)CC4CCC3C4)c1O2 (stereo partly shown) [Example B-69]
inhibition at 30 mg/kg [1, 2]: 52% | inhibition at 30 mg/kg [1, 3]: 55% | inhibition at 30 mg/kg [1, 4]: 27% | IC50 (CETP): 100 nM

COc1c([C@@H](O)CC(C)C)ccc2c1C(=O)OCc1cc(C)cc(OC(=O)N3C4CCC3CC4)c1O2 [Example B-147]
inhibition at 100 mg/kg [1, 7]: 76% | inhibition at 100 mg/kg [1, 8]: 54% | inhibition at 100 mg/kg [1, 9]: 33% | IC50 (CETP): 200 nM

CCc1c(C)c(Cl)c2c(c1OC(=O)C1(C)C3CCC1CC3)Oc1ccc([C@@H](O)CC(C)(C)C)c(OC)c1C(=O)OC2 (stereo partly shown) [Example C-73]
inhibition at 30 mg/kg [1, 3]: 91% | inhibition at 30 mg/kg [1, 5]: 81% | inhibition at 30 mg/kg [1, 6]: 56% | % increase of HDL after 4 d (dose: 4 × 30 mg/kg) (HDL): 56% | IC50 (CETP): 15 nM

COc1c([C@@H](O)CC(C)C)ccc2c1C(=O)OCc1c(Cl)c(C)c(C3CC3)c(OC(=O)C3(C)C4CCC3CC4)c1O2 (stereo partly shown) [Example C-56]
inhibition at 30 mg/kg [1, 3]: 66% | inhibition at 30 mg/kg [1, 5]: 53% | inhibition at 30 mg/kg [1, 6]: 14% | IC50 (CETP): 57 nM

COc1c([C@@H](O)CC(C)C)ccc2c1C(=O)OCc1c(Cl)c(C)c(Cl)c(OC(=O)C3(C)CCCCC3)c1O2 [Example B-84]
inhibition at 30 mg/kg [1, 2]: 31% | inhibition at 30 mg/kg [1, 3]: 28% | inhibition at 30 mg/kg [1, 4]: 35% | IC50 (CETP): 100 nM

COc1c([C@@H](O)CC(C)C)ccc2c1C(=O)OCc1cc(C)c(C3CC3)c(OC(=O)C3(C)C4CCC3CC4)c1O2 (stereo partly shown) [Example C-59]
inhibition at 30 mg/kg [1, 3]: 52% | inhibition at 30 mg/kg [1, 5]: 32% | inhibition at 30 mg/kg [1, 6]: 26%

COc1c([C@@H](O)CC(C)C)ccc2c1C(=O)OCc1c(Cl)c(C)c(Br)c(OC(=O)C3(C)CC4CCC3C4)c1O2 (stereo partly shown) [Example B-45]
inhibition at 30 mg/kg [1, 2]: 70% | inhibition at 30 mg/kg [1, 3]: 71% | inhibition at 30 mg/kg [1, 4]: 63% | IC50 (CETP): 70 nM

COc1c([C@@H](O)CC(C)C)ccc2c1C(=O)OCc1cc(C)cc(OC(=O)CC(C)(C)C)c1O2 [Example A-23]
inhibition at 100 mg/kg [1, 7]: 59% | inhibition at 100 mg/kg [1, 8]: 52% | inhibition at 100 mg/kg [1, 9]: 31% | IC50 (CETP): 250 nM

COc1c([C@@H](O)CC(C)(C)C)ccc2c1C(=O)OCc1c(Cl)c(C)c(C)c(OC(=O)C3(C)C4CCC3CC4)c1O2 (stereo partly shown) [Example C-72]
% increase of HDL after 4 d (dose: 4 × 30 mg/kg) (HDL): 68% | IC50 (CETP): 30 nM

COc1c([C@@H](O)CC(C)C)ccc2c1C(=O)OCc1c(Cl)c(C)c(Cl)c(OC(=O)C3(C)CC4CCC3C4)c1O2 (stereo partly shown) [Example B-81]
inhibition at 30 mg/kg [1, 2]: 54% | inhibition at 30 mg/kg [1, 3]: 59% | inhibition at 30 mg/kg [1, 4]: 55% | IC50 (CETP): 60 nM

COCc1c(C)c(Cl)c2c(c1OC(=O)C1(C)C3CCC1CC3)Oc1ccc(C(O)CC(C)(C)C)c(OC)c1C(=O)OC2 (stereo not shown) [Example C-71]
inhibition at 30 mg/kg [1, 3]: 60% | inhibition at 30 mg/kg [1, 5]: 29% | inhibition at 30 mg/kg [1, 6]: 7% | IC50 (CETP): 40 nM
